Measured values from patent publication US5376637A, “Pharmaceutical preparation containing vasoactive intestinal polypeptide or its analogue” (Sanwa Kagaku Kenkyusho Co., Ltd., priority 1991, dated 1994).

What was measured:
[1] = test system: PCA reaction; experiment: Passive cutaneous anaphylaxis test (PCA reaction); format: in vivo; details: male rat
Experimental: A rat was immunized with egg-albumin suspended in aluminum hydroxide gel in a conventional manner and a blood letting was carried out to obtain an antiserum rich in IgE.
A male rat was anesthetized with ethyl ether and hairs on back were sheared to intradermally inject by 0.1 ml of the antiserum solution (diluted to 5-folds in volume) described in Item (1), at both sides with a certain distance from a medial line on the back. After 72 hours, a mixed solution of egg albumin (5 mg/kg), 2% Evans blue and a test compound (L-Leu^17 ]-VIP-Hse or pure native type VIP) or disodium cromoglycate was injected into a vein, under anesthetized with pentobarbital. After 30 minutes from an occasion of PCA reaction, the experimental animal was killed and pealed-off the skin to obtain a piece of the skin dyed with the coloring matter.
The coloring matter was extracted in accordance with the method described by Katayama ["Microbio. Immunol.", Vol. 22, No. 2, pages 89 (1987)] and an amount thereof was measured at 620 nm in wave length to calculate an inhibition of the PCA reaction.

[2] = test system: arterial pressure; experiment: Hypotensing action in anesthetized beagle dog; format: in vivo; details: injection in femoral artery, 0.02-10 μg/kg
Experimental: In a femoral artery of anesthetized beagle dog (body weight: about 10 kg), each of VIP analogues as Test Samples was injected in a dose of 0.02-10 μg/kg and measured an arterial pressure to prepare a chart showing a relation between the dose and change in blood pressure and check an amount of dose which shall cause a reduction of 15 mmHg in blood pressure.

[3] = dose 0.01 mg/kg injected into a vein
[4] = dose 0.1 mg/kg injected into a vein
[5] = dose 1.0 mg/kg injected into a vein

O=C([O-])c1cc(=O)c2c(OCC(O)COc3cccc4oc(C(=O)[O-])cc(=O)c34)cccc2o1.[Na+].[Na+] [Disodium cromoglycate]
Inhibition (%) of PCA reaction [1, 3]: 5%
Inhibition (%) of PCA reaction [1, 4]: 28%
Inhibition (%) of PCA reaction [1, 5]: 31%

CC[C@H](C)[C@H](NC(=O)[C@H](CO)NC(=O)[C@H](CC(N)=O)NC(=O)[C@H](CC(C)C)NC(=O)[C@H](Cc1ccc(O)cc1)NC(=O)[C@H](CCCCN)NC(=O)[C@H](CCCCN)NC(=O)[C@@H](NC(=O)[C@H](C)NC(=O)[C@H](CCSC)NC(=O)[C@H](CCC(N)=O)NC(=O)[C@H](CCCCN)NC(=O)[C@H](CCCNC(=N)N)NC(=O)[C@H](CC(C)C)NC(=O)[C@H](CCCNC(=N)N)NC(=O)[C@@H](NC(=O)[C@H](Cc1ccc(O)cc1)NC(=O)[C@H](CC(N)=O)NC(=O)[C@H](CC(=O)O)NC(=O)[C@@H](NC(=O)[C@H](Cc1ccccc1)NC(=O)[C@@H](NC(=O)[C@H](C)NC(=O)[C@H](CC(=O)O)NC(=O)[C@H](CO)NC(=O)[C@@H](N)Cc1c[nH]cn1)C(C)C)[C@@H](C)O)[C@@H](C)O)C(C)C)C(=O)N[C@@H](CC(C)C)C(=O)N[C@@H](CC(N)=O)C(N)=O [Native type VIP, vasoactive intestinal polypeptide]
amount of dose causing a reduction of 15 mmHg in blood pressure, relative value (native type VIP = 100%) [2]: 100%
Inhibition (%) of PCA reaction [1, 3]: 23%
Inhibition (%) of PCA reaction [1, 4]: 72%
Inhibition (%) of PCA reaction [1, 5]: 67%
